The text below walks through data of the METLIN SMRT retention time set (Domingo-Almenara et al. 2019).

This data set can be described thus: gradient 5% acetonitrile 3 min, to 50% in 2 min, to 85% in 15 min, held 3 min, 100 µL/min. As to conditions: column: Zorbax Extend-C18 2.1 x 50 mm; eluents: water / acetonitrile, 0.1% formic acid. In short, it runs like this: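 Over 3 months, pure standards in mixtures of ~100 molecules were run by HPLC coupled to a quadrupole time-of-flight mass spectrometer in positive and negative ionization mode. The column was a Zorbax Extend-C18 (2.1 × 50 mm, 1.8 μm) at 100 μL/min, eluted with water and acetonitrile each holding 0.1% formic acid, with 40 μL dead and 900 μL dwell volumes. Retention time was determined from adduct peaks chosen by software and checked manually.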
Compound `CCCCOc1cccc(C(=O)N(Cc2ccc(C)o2)C2CCS(=O)(=O)C2)c1` (stereo not drawn) had an RP-LC retention time of 1030 s.

Compound `Cc1nc2cc(-c3noc(-c4cccc(F)c4)n3)ccc2o1` came in with an RP-LC retention time of 1110 s.

`O=C(C1CCN(S(=O)(=O)c2ccc(-c3noc(-c4cccc(F)c4)n3)cc2)CC1)N1CCCC1` gave an RP-LC retention time of 1020 s.

`CNC(=O)C1CN(S(=O)(=O)c2ccccc2)CC12CCCCC2` (stereo not drawn): the RP-LC retention time worked out at 776 s.

For `CCn1cc(-c2ccc(C)cc2)cc1C(=O)NC(C)c1cccnc1` (stereo not drawn), the RP-LC retention time was 736 s.

`COC(=O)c1ccccc1NC(=O)Cn1c(=O)c(CCC(=O)NCC(C)C)nc2ccccc21`: the RP-LC retention time worked out at 878 s.

On to `Cc1ccc(S(=O)(=O)N2CCC(CCC(=O)O)CC2)cc1`, for which the RP-LC retention time was found to be 799 s.

Compound `Cc1nnc(N2CCC(C(=O)N3CCCC3)CC2)c2nn(-c3ccccc3)c(C)c12` gave an RP-LC retention time of 658 s.

`O=C(NCCc1ccc(Cl)cc1)c1nnc(-c2ccc(S(=O)(=O)N3CCCCC3)cc2)o1` gave an RP-LC retention time of 1110 s.

The compound `CN1c2c(Cl)cccc2C(=O)NC12CCN(C(=O)c1ccccc1)CC2` gave an RP-LC retention time of 768 s.

`C=CCn1c(=O)c2ccccc2n(Cc2nc(-c3cccc(OCC)c3)no2)c1=O` had an RP-LC retention time of 1100 s.

On to `COc1ccc(C2Cn3nnc(-c4nc(C(C)C)no4)c3CO2)cc1` (stereo not drawn), for which the RP-LC retention time is 936 s.

`O=C(NCCc1noc(C2CC2)n1)c1cccs1` showed an RP-LC retention time of 700 s.

For `Cc1noc(C)c1S(=O)(=O)N1CCC(CCOc2ccccc2)C1` (stereo not drawn), the RP-LC retention time stood at 1080 s.

In turn, `CCN(CC)CCCNC(=O)C(C)n1nc(C)c2c(C)n(-c3ccccc3)nc2c1=O` (stereo not drawn) had an RP-LC retention time of 621 s.

With `CC(C)CCNC(=O)C1(C)Cn2nc(C(=O)N3CCN(C4CCCCC4)CC3)cc2C(=O)N1C` (stereo not drawn), the RP-LC retention time is 620 s.

In turn, `COc1nccnc1N1CCC(NC(=O)CCc2c(C)noc2C)C1` (stereo not drawn) yielded an RP-LC retention time of 606 s.

The compound `CCc1cccc(NC(=O)C2CCCN2S(=O)(=O)c2cc3c(cc2Cl)NC(=O)CO3)c1` (stereo not drawn) displayed an RP-LC retention time of 836 s.

Compound `O=C(OCc1cccnc1)c1cn(-c2cccc(Cl)c2)c(=O)c2ccccc12` gave an RP-LC retention time of 813 s.

`Cn1c(=O)c2c(ncn2CC(=O)N2CCCn3nc(-c4cccc(F)c4)cc3C2)n(C)c1=O` registered an RP-LC retention time of 677 s.

`O=C(NCc1ccc2c(c1)OCO2)C1CCCN(C(=O)c2cc(-c3ccccn3)n[nH]2)C1` (stereo not drawn): the RP-LC retention time amounted to 655 s.

`Cc1ccsc1C(=O)N1C[C@@H]2CCCN3CCC[C@@H]([C@H]23)[C@H]1CCCC(=O)NCC1CC1` displayed an RP-LC retention time of 612 s.

With `COCc1cn(C2CN(C(=O)c3ccc(OC)c(F)c3)C2)nn1`, the RP-LC retention time is 649 s.

In turn, `CCC(=O)Nc1ccc(-n2cnc(C(=O)N3CCc4ccccc4C3)c2)nc1` returned an RP-LC retention time of 721 s.

In the case of `Cc1ccc2nc(-c3ccncc3)cc(C(=O)Nc3nc(-c4ccccc4)c(C)s3)c2c1`, the RP-LC retention time stood at 990 s.

`Cc1nc2cc(-c3noc(Cc4c(Cl)cccc4Cl)n3)ccc2o1`: the RP-LC retention time was 1130 s.

For the compound `O=C(Nc1ccc(F)cc1)N1CCN(c2ccc(C(F)(F)F)cn2)CC1`, the RP-LC retention time was 921 s.

The compound `CCCS(=O)(=O)N1CCN(C(=O)c2cc(-c3ccc(OC)cc3)n[nH]2)CC1` had an RP-LC retention time of 745 s.

`CSc1nc(N2CCCC2)c2cnn(CCNC(=O)CSc3nnnn3C)c2n1` displayed an RP-LC retention time of 651 s.

Consider `CCCn1cnc2cc(-c3noc(C(NC(=O)c4ccco4)C(C)C)n3)ccc21` (stereo not drawn), for which the RP-LC retention time was determined as 708 s.

Compound `CCOc1ccc(S(=O)(=O)N2CCCC2C(=O)Nc2nccs2)cc1` (stereo not drawn) had an RP-LC retention time of 818 s.

Compound `Cc1ccc(N2CCN(S(=O)(=O)c3cc(-c4cc(C)no4)cs3)CC2)c(C)c1` had an RP-LC retention time of 1240 s.

For `COc1ccc(OC)c(C(C)NC(=O)C2CCCN(c3nccnc3Oc3ccccc3)C2)c1` (stereo not drawn), the RP-LC retention time came to 998 s.

Compound `COc1ccc(-c2nnc(-c3ccc(Cl)c(S(=O)(=O)N4CCCCC4)c3)o2)cc1OC` displayed an RP-LC retention time of 1070 s.

As to `Cc1cccc(C)c1Nc1c(-c2ccccc2)nc2ncccn12`, the RP-LC retention time was found to be 786 s.

In turn, `Cc1cc2ncn(Cc3ccccc3F)c2cc1C` displayed an RP-LC retention time of 582 s.

The compound `CNC(=O)NCC(c1ccc(F)cc1)c1c[nH]c2ccccc12` (stereo not drawn) came in with an RP-LC retention time of 782 s.

Turning to `Cc1cc(C)n(-c2nc(CC(=O)N3CCN(c4ccccc4)CC3)cs2)n1`, the RP-LC retention time was 947 s.

With `Cc1ccc(C2(O)C(=O)N(CC(=O)Nc3ccccc3F)c3ccccc32)cc1` (stereo not drawn), the RP-LC retention time came to 664 s.

In turn, `O=C(Nc1ccccc1)N1CCN(Cc2nc3cc(Cl)ccc3o2)CC1` yielded an RP-LC retention time of 716 s.

The compound `COCCn1ccc2nc(C)c(C(=O)NCCc3ccco3)cc2c1=O` returned an RP-LC retention time of 638 s.

For `CCOC(=O)C1CCc2sc(NC(=O)c3cc(-c4cccs4)[nH]n3)nc21` (stereo not drawn), the RP-LC retention time is 835 s.

Turning to `CCc1ccc(N2C(=O)CN(S(=O)(=O)c3ccccc3)CC2(C)C(=O)NC2CCCC2)cc1` (stereo not drawn), the RP-LC retention time came out at 821 s.

Compound `Cc1nn2c(CNC(=O)C(C)Oc3cccc(Cl)c3)c(C)nc2s1` (stereo not drawn) yielded an RP-LC retention time of 676 s.

`Cc1ccc(-c2csc(NC(=O)CCc3nc(CSc4nc5cc(C)ccc5o4)no3)n2)cc1` returned an RP-LC retention time of 1210 s.

`Cc1cc(C)cc(NC(=O)C(=O)NCC(c2ccc3c(c2)OCO3)N2CCOCC2)c1` (stereo not drawn) returned an RP-LC retention time of 613 s.

Turning to `CCC(=O)N1CCc2cc(N3CC(C(=O)N4CCCN(C)CC4)CC3=O)ccc21` (stereo not drawn), the RP-LC retention time came out at 572 s.

For `CCc1ccc(CNC(=O)c2cn(-c3ccc(-c4nc(C)no4)cn3)cn2)cc1`, the RP-LC retention time is 805 s.

As for `CS(=O)(=O)N1CCC(C(=O)NCc2ccccc2)Oc2ccccc21` (stereo not drawn), the RP-LC retention time came out at 807 s.

`CCOc1cc(C(=O)NC(C(=O)Nc2nc3ccccc3[nH]2)C(C)C)cc(OCC)c1OCC` (stereo not drawn) came in with an RP-LC retention time of 824 s.

`Cc1nnc(NC(=O)CSc2nnc(-c3cccs3)o2)s1` had an RP-LC retention time of 654 s.

Consider `O=C(COc1ccccc1)Nc1ccc2c(c1)N(C(=O)c1ccco1)CCC2`, for which the RP-LC retention time worked out at 899 s.

`CCCn1cc(C(=O)NCCC(C)C)c(S(=O)(=O)N2CCN(c3ccccc3OCC)CC2)n1` gave an RP-LC retention time of 1240 s.

`COc1ccc(S(=O)(=O)N2CCN(c3ccccn3)CC2)cc1OC` returned an RP-LC retention time of 588 s.

Compound `CC(=O)NC[C@H]1CN(c2ccc(-c3ccc(CNCc4cn[nH]n4)cc3)c(F)c2)C(=O)O1` returned an RP-LC retention time of 647 s.

In turn, `Cc1ccccc1Cn1c(CNC(=O)Cc2ccccc2)nc2ccccc21` registered an RP-LC retention time of 645 s.

Turning to `CCn1c(=O)c(N2CCN(S(=O)(=O)c3ccc(Cl)s3)CC2)nc2ccncc21`, the RP-LC retention time was 739 s.

On to `O=C(CN1C(=O)CSc2cccn2-c2ccccc21)NCCC1=CCCCC1`, for which the RP-LC retention time came out at 1030 s.

For `CC(=O)Nc1nc(-c2ccc(S(=O)(=O)Nc3ccc(C)cc3)cc2)cs1`, the RP-LC retention time worked out at 854 s.

Consider `Cn1c(C2CCN(C(=O)Cc3ccc(Cl)cc3)C2)nc2ccncc21` (stereo not drawn), for which the RP-LC retention time was found to be 551 s.

The compound `COc1cccc(C(=O)N2CCN(c3ccc(=O)n(-c4ccc(Cl)cc4)n3)CC2)c1` gave an RP-LC retention time of 853 s.

The compound `CC(C)C(NC(=O)c1ccco1)C(=O)NCc1nn(C)c2ccccc12` (stereo not drawn) displayed an RP-LC retention time of 677 s.

In turn, `CN1CCN(c2nc3c(c(Nc4ccccc4)n2)C(=O)CC(C)(C)C3)CC1` showed an RP-LC retention time of 713 s.

On to `O=C(COc1ccc(Cl)cc1)Nc1ccc2c(c1)N(C(=O)c1ccco1)CCC2`, for which the RP-LC retention time is 948 s.

With `O=C1NCN(c2ccccc2)C12CCN(CCCC(c1ccc(F)cc1)c1ccc(F)cc1)CC2`, the RP-LC retention time was determined as 892 s.

In the case of `CC(=O)Nc1ccc2c(c1)CN(C(=O)c1cccc(Cl)c1)C(C(=O)N1CCCC1)C2` (stereo not drawn), the RP-LC retention time worked out at 690 s.

Regarding `Cc1ccc(S(=O)(=O)N2CCc3c(c(-c4nnc(-c5ccccc5F)o4)nn3C)C2)cc1Cl`, the RP-LC retention time was determined as 1040 s.

`COC(=O)c1ccc2c(=O)n(CCc3ccccc3)c(N3CCCCCC3)nc2c1` gave an RP-LC retention time of 1300 s.

Compound `O=C1CC(C(F)(F)F)c2c(c(C(=O)O)cn2-c2cccc(Cl)c2)N1` (stereo not drawn) displayed an RP-LC retention time of 786 s.

Compound `O=c1n(Cc2ccccc2)nc2c(S(=O)(=O)N3CCN(c4ccc(F)cc4)CC3)cccn12` yielded an RP-LC retention time of 973 s.

With `COCCn1nc2n(c1=O)CCN(Cc1cccc(OC)n1)CC2`, the RP-LC retention time came to 515 s.

`O=S(=O)(Cc1ccccc1F)N1CCCC(c2nn[nH]n2)C1` (stereo not drawn) yielded an RP-LC retention time of 706 s.

The compound `COc1cccc(-c2cc(C(=O)N3CCN(c4ccccc4F)CC3)n(C)n2)c1` yielded an RP-LC retention time of 772 s.

`COc1cc(C(=O)NCC(=O)Nc2nc3ccccc3[nH]2)cc(OC)c1OC` gave an RP-LC retention time of 617 s.

`O=S1(=O)CCC(Nc2ncnc3c2cnn3-c2ccc(Cl)c(Cl)c2)C1` (stereo not drawn) showed an RP-LC retention time of 903 s.

Consider `Cc1cccc(C)c1NC(=O)Cn1c(=O)n(-c2ccccc2)c(=O)c2c1cc(C)n2C`, for which the RP-LC retention time was 864 s.

Consider `O=C(NC1CCCCC1)N1CCc2nc(-c3ccc(Cl)cc3)ncc2C1`, for which the RP-LC retention time is 1050 s.

`O=C(C1CCN(c2nc3ccc(-c4ccc(F)cc4)nc3s2)CC1)N1CCOCC1` returned an RP-LC retention time of 864 s.
